Results as given in patent US20250327032A1, “AGENT FOR AVOIDING IMMUNE RESPONSE OF TRANSGENIC CELLS” (HYPERION DRUG DISCOVERY CO., LTD., priority 2021, published 2025).

Columns and labels:
Format in all cases: cell-based
[1] = system: Human leukemia T cells (Jurkat E6.1); assay: Introduction of GFP-tagged CAR-T plasmid by lipofection, yield of GFP-positive cells; conditions: JSH-23 0.1 μM; GFP-tagged CAR-T plasmid 1 pg/cell
Description: Human leukemia T cells (Jurkat E6.1) were seeded in a 6-well plate to be about 10,000 cells/cm^2. As a culture solution, RPMI1640 medium comprising 10% bovine serum was used. To this, 0.1 μM of JSH-23 was added, or for comparison, 0.1% (v/v) DMSO instead of JSH-23 was added and used.
A lipofection solution was prepared by adding Lipofectamine 2000 and GFP-tagged CAR-T plasmid to OptiMEM. The amount of CAR-T plasmid was prepared to be 1 pg/cell. The prepared lipofection solution was mixed well according to the manufacturer's recommended protocol and allowed to stand at room temperature for about 15 minutes.
Next, the lipofection solution was added to the plate seeded with human leukemia T cells, and cultured in a CO2 incubator at 37° C. for about 1 day (18 hours). […]
Twenty-four hours after the final introduction of genes, the cells were collected and centrifuged at 800 rpm for 5 minutes using a centrifuge, to collect the cells. The collected cells were counted using a hemocytometer. Furthermore, the GFP-positive percentage of the collected cells was measured using a flow cytometer. The yield of the number of GFP-positive cells was calculated from the number of cells counted and the GFP-positive percentage.

TNF-α = TNF-α expression level (qPCR) after introduction of GFP mRNA containing pseudouridine; conditions: human mesenchymal stem cells; JSH-23 10 μM; GFP mRNA containing pseudouridine 10 pg/cell; compared to pseudouridine only
Description: Reduction of TNF-α expression level using JSH-23 in introduction of GFP mRNA into human mesenchymal stem cells (hMSCs) Human mesenchymal stem cells were seeded in a 6-well plate to be about 10,000 cells/cm^2. As a culture solution, αMEM (+10% serum) supplemented with 10 μM of JSH-23 was used. As a control, αMEM (+10% serum) supplemented with 0.1% (v/v) DMSO instead of JSH-23 was used as a culture solution.
A lipofection solution was prepared by adding Lipofectamine RNAiMAX and fluorescent protein GFP mRNA to OptiMEM. The GFP mRNA containing pseudouridine instead of uridine was used. It was prepared so that the amount of mRNA was 10 pg/cell. The prepared lipofection solution was mixed well according to the manufacturer's recommended protocol and allowed to stand at room temperature for about 15 minutes.
Next, each lipofection solution was added to the plate seeded with human mesenchymal stem cells or human myoblasts, and cultured in a CO2 incubator at 37° C. for about 1 day (18 hours). […]
cDNA was synthesized from the purified RNA using SuperScript™ III Reverse Transcriptase according to the manufacturer's protocol. qPCR was performed using synthesized cDNA and PCR primers and PowerTrack™ SYBR Green Master Mix. The measured Ct value of TNF-α was normalized with the Ct value of β-actin, a housekeeping gene.

[2] = system: human mesenchymal stem cells; assay: Introduction of TERT plasmid by lipofection, number of viable cells; conditions: JSH-23 1 μM; TERT plasmid DNA 10 pg/cell
Description: Human mesenchymal stem cells were seeded in a 6-well plate to be about 10,000 cells/cm^2. As a culture solution, αMEM (+10% serum) supplemented with 1 μM of JSH-23 was used. As a control, αMEM (+10% serum) supplemented with 0.1% (v/v) DMSO instead of JSH-23 was used as a culture solution.
A lipofection solution was prepared by adding Lipofectamine RNAiMAX and TERT plasmid DNA to OptiMEM. The amount of plasmid DNA was prepared to be 10 pg/cell.
Next, the lipofection solution was added to the plate seeded with human mesenchymal stem cells, and cultured in a CO2 incubator at 37° C. for 18 hours. After culturing, all the culture solution comprising the lipofection solution was removed and replaced with a new culture solution having the same composition as before the addition of the lipofection solution.
After another 6 hours, the above lipofection solution was newly prepared, added again to the plate seeded with human mesenchymal stem cells, and cultured in a CO2 incubator at 37° C. for 18 hours. These steps were repeated so that the introduction of genes was performed a total of 4 times.
Twenty-four hours after the final introduction of genes, the cells were detached with a cell detachment solution, centrifuged at 600×g for 5 minutes using a centrifuge, to collect the cells. The collected cells were counted using a hemocytometer.

Compound: Cc1ccc(NCCCc2ccccc2)c(N)c1 [JSH-23]
- number of GFP-positive cells compared to the control (control set to 1) [1]: ≥ 2 times
- expression level of TNF-α (normalized with β-actin) (TNF-α): further reduced
- number of viable cells compared to the control (control set to 1) [2]: ≥ 1.4 times
